# Data reported in patent US6613747B2, “6-O-carbamoyl ketolide antibacterials” (Ortho-McNeil Pharmaceutical, Inc., priority 2000, dated 2003).
# Like-named read-outs stand apart in the source and are kept apart here.
# Key:
# Assay in all cases: MIC, microdilution broth method (NCCLS)
# Assay type in all cases: cell-based
# E. faecalis ATCC29212 = conditions: C: E. faecalis ATCC29212, 35° C., 16-20 hours
# How it was run: (§1)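 NCCLS M7-A4 broth microdilution using two-fold serial drug dilutions in cation-adjusted Mueller-Hinton broth, with inoculum ~5×10^4 CFU/well. Trays were incubated at 35 °C for 16–20 h, and growth was compared against compound-free controls.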
# E. coli OC2605 = conditions: A: E. coli OC2605, 35° C., 16-20 hours
# How it was run: as §1
# H. influenzae ATCC49247 = conditions: E: H. influenzae ATCC49247, 35° C., 16-20 hours
# How it was run: as §1
# S. pneumoniae ATCC49619 = conditions: D: S. pneumoniae ATCC49619, 35° C., 16-20 hours
# How it was run: as §1
# S. aureus ATCC29213 = conditions: B: S. aureus ATCC29213, 35° C., 16-20 hours
# How it was run: as §1
SMILES,MIC (E. faecalis ATCC29212),MIC (E. coli OC2605),MIC (H. influenzae ATCC49247),MIC (S. pneumoniae ATCC49619),MIC (S. aureus ATCC29213),"MIC (E. faecalis ATCC29212; Enterococcus faecalis, read-out: MIC)","MIC (E. coli OC2605; Escherichia coli, read-out: MIC)","MIC (H. influenzae ATCC49247; Haemophilus influenzae, read-out: MIC)","MIC (S. pneumoniae ATCC49619; Streptococcus pneumoniae, read-out: MIC)","MIC (S. aureus ATCC29213; Staphylococcus aureus, read-out: MIC)"
"CC[C@H]1OC(=O)[C@H](C)C(=O)[C@H](C)[C@@H](O[C@@H]2O[C@H](C)C[C@H](N(C)C)[C@H]2O)[C@](C)(OC(=O)NC/C=C/c2ccc(-c3cnccn3)cc2)C[C@@H](C)C(=O)[C@H](C)[C@H]2NC(=O)O[C@@]21C [Compound 77, Carbamic acid, [(2E)-3-(4-pyrazinylphenyl)-2-propenyl]-, (3aS,4R,7R,9R,10R,11R,13R,15R,15aR)-4-ethyltetradecahydro-3a,7,9,11,13,15-hexamethyl-2,6,8,14-tetraoxo-10-[[3,4,6-trideoxy-3-(dimethylamino)-β-D-xylo-hexopyranosyl]oxy]-2H-oxacyclotetradecino[4,3-d]oxazol-11-yl ester]",,,,,,0.12 µg/mL,16 µg/mL,4 µg/mL,0.03 µg/mL,0.12 µg/mL
CC[C@H]1OC(=O)[C@H](C)C(=O)[C@H](C)[C@@H](O[C@@H]2O[C@H](C)C[C@H](N(C)C)[C@H]2O)[C@](C)(OC(=O)NCc2ccc(-c3ccncn3)cc2)C[C@@H](C)C(=O)[C@H](C)[C@H]2NC(=O)O[C@@]21C [Compound 79],0.06 µg/mL,8 µg/mL,2 µg/mL,0.03 µg/mL,0.25 µg/mL,,,,,
"CC[C@H]1OC(=O)[C@H](C)C(=O)[C@H](C)[C@@H](O[C@@H]2O[C@H](C)C[C@H](N(C)C)[C@H]2O)[C@](C)(OC(=O)NCCCc2ccc(-c3ncccn3)cc2)C[C@@H](C)C(=O)[C@H](C)[C@H]2NC(=O)O[C@@]21C [Compound 80, Carbamic acid, [3-[4-(2-2pyrimidinyl)phenyl]propyl]-, (3aS,4R,7R,9R,10R,11R,13R,15R,15aR)-4-ethyltetradecahydro-3a,7,9,11,13,15-hexamethyl-2,6,8,14-tetraoxo-10-[[3,4,6-trideoxy-3-(dimethylamino)-b-β-xylo-hexopyranosyl]oxy]-2H-oxacyclotetradecino[4,3-d]oxazol-11-yl ester]",0.06 µg/mL,>16 µg/mL,4 µg/mL,0.03 µg/mL,0.12 µg/mL,,,,,
CC[C@H]1OC(=O)[C@H](C)C(=O)[C@H](C)[C@@H](O[C@@H]2O[C@H](C)C[C@H](N(C)C)[C@H]2O)[C@](C)(OC(=O)NC/C=C/c2ccc(-n3cccn3)c(OC)c2)C[C@@H](C)C(=O)[C@H](C)[C@H]2NC(=O)O[C@@]21C [Compound 84],0.12 µg/mL,>16 µg/mL,4 µg/mL,0.06 µg/mL,0.25 µg/mL,,,,,
CC[C@H]1OC(=O)[C@H](C)C(=O)[C@H](C)[C@@H](O[C@@H]2O[C@H](C)C[C@H](N(C)C)[C@H]2O)[C@](C)(OC(=O)N(C)C/C=C/c2ccc(-c3ncccn3)cc2)C[C@@H](C)C(=O)[C@H](C)[C@H]2NC(=O)O[C@@]21C [Compound 85],0.25 µg/mL,>16 µg/mL,>16 µg/mL,0.12 µg/mL,1 µg/mL,,,,,
CC[C@H]1OC(=O)[C@H](C)C(=O)[C@H](C)[C@@H](O[C@@H]2O[C@H](C)C[C@H](N(C)C)[C@H]2O)[C@](C)(OC(=O)NC/C=C/c2ccc(Oc3ncccn3)cc2)C[C@@H](C)C(=O)[C@H](C)[C@H]2NC(=O)O[C@@]21C [Compound 86],0.12 µg/mL,>16 µg/mL,8 µg/mL,0.06 µg/mL,0.5 µg/mL,,,,,
CC[C@H]1OC(=O)[C@H](C)C(=O)[C@H](C)[C@@H](O[C@@H]2O[C@H](C)C[C@H](N(C)C)[C@H]2O)[C@](C)(OC(=O)NCc2ccc(-c3ncccn3)cc2F)C[C@@H](C)C(=O)[C@H](C)[C@H]2NC(=O)O[C@@]21C [Compound 87],0.06 µg/mL,16 µg/mL,4 µg/mL,0.03 µg/mL,0.25 µg/mL,,,,,
CC[C@H]1OC(=O)[C@H](C)C(=O)[C@H](C)[C@@H](O[C@@H]2O[C@H](C)C[C@H](N(C)C)[C@H]2O)[C@](C)(OC(=O)NC/C=C/c2ccc(-c3ncccn3)cc2F)C[C@@H](C)C(=O)[C@H](C)[C@H]2NC(=O)O[C@@]21C [Compound 88],0.06 µg/mL,16 µg/mL,8 µg/mL,0.06 µg/mL,0.25 µg/mL,,,,,
CCC1OC(=O)C(C)(F)C(=O)C(C)C(OC2OC(C)CC(N(C)C)C2O)C(C)(OC(=O)NCC=Cc2ccc(-c3ncccn3)cc2)CC(C)C(=O)C(C)C2NC(=O)OC12C (stereo not shown) [Compound 89],0.25 µg/mL,16 µg/mL,8 µg/mL,0.06 µg/mL,0.5 µg/mL,,,,,
CCC1OC(=O)C(C)(F)C(=O)C(C)C(OC2OC(C)CC(N(C)C)C2O)C(C)(OC(=O)NCC=Cc2ccc3ncccc3c2)CC(C)C(=O)C(C)C2NC(=O)OC12C (stereo not shown) [Compound 90],0.06 µg/mL,8 µg/mL,4 µg/mL,0.03 µg/mL,0.25 µg/mL,,,,,
CCC1OC(=O)C(C)(F)C(=O)C(C)C(OC2OC(C)CC(N(C)C)C2O)C(C)(OC(=O)NCC=Cc2ccc(-n3cccn3)cc2)CC(C)C(=O)C(C)C2NC(=O)OC12C (stereo not shown) [Compound 91],0.12 µg/mL,16 µg/mL,4 µg/mL,0.06 µg/mL,0.25 µg/mL,,,,,
CC[C@H]1OC(=O)[C@H](C)C(=O)[C@H](C)[C@@H](O[C@@H]2O[C@H](C)C[C@H](N(C)C)[C@H]2O)[C@](C)(OC(=O)NCc2cn(-c3ncccn3)cn2)C[C@@H](C)C(=O)[C@H](C)[C@H]2NC(=O)O[C@@]21C [Compound 93],0.06 µg/mL,16 µg/mL,1 µg/mL,≦0.015 μg/mL,0.5 µg/mL,,,,,

# Second part, the compound after the results:
MIC (E. faecalis ATCC29212),MIC (E. coli OC2605),MIC (H. influenzae ATCC49247),MIC (S. pneumoniae ATCC49619),MIC (S. aureus ATCC29213),"MIC (E. faecalis ATCC29212; Enterococcus faecalis, read-out: MIC)","MIC (E. coli OC2605; Escherichia coli, read-out: MIC)","MIC (H. influenzae ATCC49247; Haemophilus influenzae, read-out: MIC)","MIC (S. pneumoniae ATCC49619; Streptococcus pneumoniae, read-out: MIC)","MIC (S. aureus ATCC29213; Staphylococcus aureus, read-out: MIC)",SMILES
0.06 µg/mL,16 µg/mL,2 µg/mL,≦0.015 μg/mL,0.25 µg/mL,,,,,,CC[C@H]1OC(=O)[C@H](C)C(=O)[C@H](C)[C@@H](O[C@@H]2O[C@H](C)C[C@H](N(C)C)[C@H]2O)[C@](C)(OC(=O)NCc2ccc(-c3cnccn3)cc2)C[C@@H](C)C(=O)[C@H](C)[C@H]2NC(=O)O[C@@]21C [Compound 76]
0.06 µg/mL,>16 µg/mL,4 µg/mL,0.03 µg/mL,0.25 µg/mL,,,,,,CC[C@H]1OC(=O)[C@H](C)C(=O)[C@H](C)[C@@H](O[C@@H]2O[C@H](C)C[C@H](N(C)C)[C@H]2O)[C@](C)(OC(=O)NC/C=C/c2ccc(-c3ccncn3)cc2)C[C@@H](C)C(=O)[C@H](C)[C@H]2NC(=O)O[C@@]21C [Compound 78]
0.12 µg/mL,>16 µg/mL,8 µg/mL,0.06 µg/mL,2 µg/mL,,,,,,CC[C@H]1OC(=O)[C@H](C)C(=O)[C@H](C)[C@@H](O[C@@H]2O[C@H](C)C[C@H](N(C)C)[C@H]2O)[C@](C)(OC(=O)NCc2ccc(-n3cccn3)c(OC)c2)C[C@@H](C)C(=O)[C@H](C)[C@H]2NC(=O)O[C@@]21C [Compound 81]
0.06 µg/mL,>16 µg/mL,4 µg/mL,0.03 µg/mL,0.25 µg/mL,,,,,,CC[C@H]1OC(=O)[C@H](C)C(=O)[C@H](C)[C@@H](O[C@@H]2O[C@H](C)C[C@H](N(C)C)[C@H]2O)[C@](C)(OC(=O)NCC#Cc2ccc(-n3cccn3)cc2)C[C@@H](C)C(=O)[C@H](C)[C@H]2NC(=O)O[C@@]21C [Compound 82]
0.25 µg/mL,>16 µg/mL,8 µg/mL,0.06 µg/mL,2 µg/mL,,,,,,CC[C@H]1OC(=O)[C@H](C)C(=O)[C@H](C)[C@@H](O[C@@H]2O[C@H](C)C[C@H](N(C)C)[C@H]2O)[C@](C)(OC(=O)NCc2ccc(Oc3ncccn3)cc2)C[C@@H](C)C(=O)[C@H](C)[C@H]2NC(=O)O[C@@]21C [Compound 83]
0.12 µg/mL,16 µg/mL,2 µg/mL,0.03 µg/mL,0.25 µg/mL,,,,,,CC[C@H]1OC(=O)[C@H](C)C(=O)[C@H](C)[C@@H](O[C@@H]2O[C@H](C)C[C@H](N(C)C)[C@H]2O)[C@](C)(OC(=O)NC/C=C/c2cn(-c3ncccn3)cn2)C[C@@H](C)C(=O)[C@H](C)[C@H]2NC(=O)O[C@@]21C [Compound 92]
0.12 µg/mL,>16 µg/mL,2 µg/mL,0.06 µg/mL,0.25 µg/mL,,,,,,CC[C@H]1OC(=O)[C@H](C)C(=O)[C@H](C)[C@@H](O[C@@H]2O[C@H](C)C[C@H](N(C)C)[C@H]2OC(C)=O)[C@](C)(OC(=O)NC/C=C/c2ccc(-c3ncccn3)cc2)C[C@@H](C)C(=O)[C@H](C)[C@H]2NC(=O)O[C@@]21C [Compound 94]
0.12 µg/mL,4 µg/mL,1 µg/mL,0.03 µg/mL,0.25 µg/mL,,,,,,CCC1OC(=O)C(C)C(=O)C(C)C(OC2OC(C)CC(N(C)C)C2O)C(C)(OC(=O)NCC=Cc2ccc(-c3cccnn3)cc2)CC(C)C(=O)C(C)C2NC(=O)OC12C (stereo not shown) [Compound 96]
